Results published in patent US3972872A, “6-[α-(ω-Guanidinoalkanoylamido)acylamido]penicillanic acids” (Pfizer Inc., priority 1975, dated 1976).
Values after ≈ are worked out from the molar mass of the structure shown. Where two headings read alike, the source gives them in different places.

Tests used:
Pseudo. aeruginosa 490 = test: In vitro MIC, Pseudo. aeruginosa 490; type: cell-based, Pseudomonas aeruginosa; details: unit assumed
Source text: (§1) The in vitro spectra of a number of 6-[α-(ω-guanidinoalkanoylamido)acylamido]penicillanic acids of this invention against certain gram-negative bacteria are presented in Table I below. […] Th compounds of Table I have the formula

Pseudo. aeruginosa 104 = test: In vitro MIC, Pseudo. aeruginosa 104; type: cell-based, Pseudomonas aeruginosa; details: unit assumed
Source text: as §1

Proteus mirabilis C015 = test: In vitro MIC, Proteus mirabilis C015; type: cell-based; details: unit assumed
Source text: as §1

Proteus vulgaris A059 = test: In vitro MIC, Proteus vulgaris A059; type: cell-based; details: unit assumed
Source text: as §1

Escherichia coli 266 = test: In vivo protection of mice versus Escherichia coli 266; details: Escherichia coli, 266, sc, 96 h, read-out: % Protection
Source text: (§2) Additionally, the compounds of this invention are active versus gram-positive and gram-negative bacteria in vivo via the parenteral route of administration in animals, including man. Their in vivo activity in animals, including man, by the oral route of administration is more limited as regards susceptible organisms. Nevertheless, oral in vivo activity against Escherichia coli and Staphylococcus aureus is a common property of many compounds of this invention. Table II below presents the comparative in vivo spectra of several compounds within the scope of this invention against D-α-aminobenzylpenicillin (Ampicillin).
(§3) The acute systemic infections in mice were produced by the intraperitoneal inoculation of standardized cultures suspended in 5% hog gastric mucin. Treatment with the drugs was initiated 0.5 hours after inoculation of the infecting organism. A second dose was administered 4 hours later. The PD50 values were calculated after a hold period of 4 days.

Serratia marcescens A001 = test: In vitro MIC, Serratia marcescens A001; type: cell-based; details: unit assumed
Source text: as §1

S. aureus = test: PD50 versus acute systemic S. aureus infection in mice; type: in vivo; details: for ED50: Staphylococcus aureus, 96 h, S. aureus, mice
Source text: as §2, §3

in vivo = details: dog, im, 25 mg/kg
E. coli = test: PD50 versus acute systemic E. coli infection in mice; type: in vivo; details: for ED50: Escherichia coli, 96 h, E. coli, mice
Source text: as §2, §3

P. aeruginosa = test: PD50 versus acute systemic P. aeruginosa infection in mice; type: in vivo; details: for ED50: Pseudomonas aeruginosa, 96 h, read-out: PD50; for activity against Pseudomonas aeruginosa (in words): in vivo
Source text: as §2, §3

Pseudo. aeruginosa 173 = test: In vitro MIC, Pseudo. aeruginosa 173; type: cell-based, Pseudomonas aeruginosa; details: unit assumed
Source text: as §1

E. coli 266 = test: In vitro MIC, E. coli 266, two-fold serial dilution; type: cell-based, Escherichia coli; details: unit assumed
Source text: as §1

Proteus rettgeri B006 = test: In vitro MIC, Proteus rettgeri B006; type: cell-based; details: unit assumed
Source text: (§4) The in vitro activity of the herein-described compounds renders them useful for topical application in the form of ointments, creams and the like, or for sterilization purposes, e.g., sick room utensils.
as §1

Proteus mirabilis C020 = test: In vitro MIC, Proteus mirabilis C020; type: cell-based; details: unit assumed
Source text: as §4, §1

[1] = Urine levels and urinary recovery in dogs, single intramuscular dose
[2] = Serum levels in dogs, single intramuscular dose; details: for Serum Levels: intramuscular 25 mg./kg.

CC1(C)S[C@@H]2[C@H](NC(=O)[C@H](NC(=O)NC(=N)N)c3ccccc3)C(=O)N2[C@H]1C(=O)O [B, 6-[D-2-phenyl-2-(3-guanylureido)acetamido]penicillanic acid] gave an MIC (Pseudo. aeruginosa 490) of 1.5 µg/mL (≈ 3.45 µM), an MIC (Pseudo. aeruginosa 104) of 2.5 µg/mL (≈ 5.75 µM) and an MIC (Proteus mirabilis C015) of 0.78 µg/mL (≈ 1.8 µM). The MIC (Proteus vulgaris A059) was 1.56 µg/mL (≈ 3.59 µM), the responders at 50 mg/kg (Escherichia coli 266; 50 mg./kg., mice, subcutaneous route) was 100% and the MIC (Serratia marcescens A001) was 6.25 µg/mL (≈ 14.4 µM). For the same compound, the ED50 (S. aureus; oral) was greater than 100 mg/kg, the ED50 (S. aureus; sc, subcutaneous) was 18 ± 9.8 mg/kg and the “in vivo oral activity against S. aureus (in words)” value (S. aureus; oral) was “lacks oral activity”. The concentration at 0.5 h (in vivo) was 3.5 µg/mL, the concentration at 1 h (in vivo) was 3.6 µg/mL and the concentration at 2 h (in vivo) was 0.8 µg/mL. For the same compound, the ED50 (E. coli; oral) was greater than 200 mg/kg, the ED50 (E. coli; sc, subcutaneous) was 15 ± 6.5 mg/kg and the “in vivo oral activity against E. coli (in words)” value (E. coli; oral) was “lacks oral activity”. The ED50 (P. aeruginosa; P. aeruginosa, oral, mice) was greater than 200 mg/kg, the ED50 (P. aeruginosa; sc, P. aeruginosa, subcutaneous, mice) was 41 ± 13 mg/kg and the “activity against Pseudomonas aeruginosa (in words)” value (P. aeruginosa; mice) was “active”. For the same compound, the MIC (Pseudo. aeruginosa 173) was 1.5 µg/mL (≈ 3.45 µM) and the MIC (E. coli 266) was 3.1 µg/mL (≈ 7.13 µM).
With CC1(C)S[C@@H]2[C@H](NC(=O)[C@H](NC(=O)CNC(=N)N)c3ccccc3)C(=O)N2[C@H]1C(=O)O [A, 6-[D-2-Phenyl-2-(Guanidinoacetamido)Acetamido]Penicillanic Acid] the MIC (Proteus rettgeri B006) was 12.5 µg/mL (≈ 27.9 µM), the MIC (Pseudo. aeruginosa 490) was 1.56 µg/mL (≈ 3.48 µM) and the MIC (Pseudo. aeruginosa 104) was 1.56 µg/mL (≈ 3.48 µM). It also gave an MIC (Proteus mirabilis C015) of 1.56 µg/mL (≈ 3.48 µM), an MIC (Proteus vulgaris A059) of 1.56 µg/mL (≈ 3.48 µM) and a responders at 50 mg/kg (Escherichia coli 266) of 100%. For the same compound, the MIC (Serratia marcescens A001) was 6.25 µg/mL (≈ 13.9 µM), the ED50 (S. aureus; oral) was 68 mg/kg and the ED50 (S. aureus; sc, subcutaneous) was 13 ± 3.9 mg/kg. The “in vivo oral activity against S. aureus (in words)” value (S. aureus; oral) was “dual in vivo activity”, the ED50 (E. coli; oral) was 50 mg/kg and the ED50 (E. coli; sc, subcutaneous) was 6 mg/kg. For the same compound, the “in vivo oral activity against E. coli (in words)” value (E. coli; oral) was “dual in vivo activity”, the ED50 (P. aeruginosa; po) was greater than 200 mg/kg and the ED50 (P. aeruginosa; sc) was 41 ± 13 mg/kg. For the same compound, the “activity against Pseudomonas aeruginosa (in words)” value (P. aeruginosa; mice) was “active”, the MIC (Proteus mirabilis C020) was 1.56 µg/mL (≈ 3.48 µM) and the concentration at 0.5 h ([1]; dog, urine, im, 25 mg/kg) was 366 µg/mL. For the same compound, the concentration at 1 h ([1]; dog, urine, im, 25 mg/kg) was 710 µg/mL, the concentration at 2 h ([1]; dog, urine, im, 25 mg/kg) was 1020 µg/mL and the concentration at 3 h ([1]; dog, urine, im, 25 mg/kg) was 554 µg/mL. The concentration at 4 h ([1]; dog, urine, im, 25 mg/kg) was 219 µg/mL, the concentration at 5 h ([1]; dog, urine, im, 25 mg/kg) was 130 µg/mL and the dose excreted ([1]; dog, urine, im, 25 mg/kg) was 35.4%. For the same compound, the “Concentrations in Urine” value ([1]; dogs, intramuscular 25 mg./kg., 0 hours) was 0 ng/mL, the “total urinary recovery of drug compared with [B] (in words)” value ([1]; parenteral, dogs) was “clearly superior” and the MIC (Pseudo. aeruginosa 173) was 1.56 µg/mL (≈ 3.48 µM). It also gave a concentration at 1 h ([2]; dog, serum, im, 0.05 mg/kg) of 78 µg/mL, a concentration at 2 h ([2]; dog, serum, im, 0.05 mg/kg) of 48 µg/mL and a concentration at 0.5 h ([2]; dog, serum, im, 25 mg/kg) of 30.4 µg/mL. The concentration at 1 h ([2]; dog, serum, im, 25 mg/kg) was 26.2 µg/mL, the concentration at 2 h ([2]; dog, serum, im, 25 mg/kg) was 10.3 µg/mL and the concentration at 3 h ([2]; dog, serum, im, 25 mg/kg) was 2.1 µg/mL. For the same compound, the “Serum Levels” value ([2]; dogs, 0 hours) was 0 ng/mL, the “Serum Levels” value ([2]; dogs, 4 hours) was 0 ng/mL and the “Serum Levels” value ([2]; dogs, 6 hours) was 0 ng/mL. The “blood levels of drug compared with [B] (in words)” value ([2]; parenteral, dogs) was “clearly superior” and the MIC (E. coli 266) was 1.56 µg/mL (≈ 3.48 µM).
